Results from US7662361B2, “Methods and compositions for modulating drug activity through telomere damage” (priority 1999, dated 2010).
Marks after values point to notes of the source that are not given here.

Tests used:
[1] = system: telomerase activity in histocultures of FaDu xenograft tumors; assay: TRAP telomerase activity in tumor histocultures; format: cell-based, human; details: 1 μM paclitaxel
Description: Histocultures of solid tumors. Histocultures are cultures of tumor fragments where the three dimensional structure and the heterogeneous tissue composition are maintained. […] Tumor specimens were washed three times with culture medium for three times and dissected into about 1 mm^3 fragments under sterile conditions. The culture medium for the FaDu histocultures was MEM supplemented with 9% heat-inactivated FBS, 2 mM glutamine, 90 μg/ml gentamicin and 90 μg/ml cefotaxime sodium.
For the preparation of cell and tissue extracts, cells and tissue were harvested, washed, and stored at −70° C. […] The protein concentration of the supernatant was determined using Bicinchoninic Acid Kit (Sigma, St Louis, Mo.). […] Samples with equal amounts of protein (1-2 μg) were analyzed by TRAP. […]
The template for the internal standard was amplified by PCR and purified by spin columns (QIAquick PCR purification kit, Qiagen, Valencia, Calif.). The concentration was determined by a spectrophotometer.
PCR was performed on the GeneAmp PCR system 2400 (Perkin Elmer) and initiated by 1 cycle at 94° C. for 3 min, 50° C. for 4 min, and 68° C. for 2 min, then 25 rounds at 94° C. for 30 sec, 50° C. for 30 sec, and 68° C. for 90 sec, followed by 68° C. for 10 min. […] The gel was then dried and the amplification products were detected.

[2] = system: SKOV3 cells; assay: FISH detection of damaged telomeres after paclitaxel treatment; format: cell-based, human; details: 200 nM paclitaxel
From the text: Fluorescent in situ hybridization (FISH). Fluorescent in situ hybridization (FISH) was used to identify the presence and to estimate the approximate length of individual telomere structures at the end of chromosomes. The FISH method used was a modification of a previously published method (Multani A S et al. (1996) Anticancer Res 16: 3435-3438; Henderson S et al. (1996) J Cell Biol 134:1-12), and consists of the following three steps: (a) the cells are fixed in a manner that promotes spreading of the chromosomes, (b) a nucleotide sequence complementary to the telomere sequence is used as probe to bind to the telomeres and to provide a point of attachment for fluorescently-labeled antibodies, and (c) the fluorescent signal is identified using fluorescent microscopy.
The methods are as follows. To spread the chromosomes, the cell pellet was incubated with a hypotonic solution (75 mM KCl) at 37° C. for 20 min, washed three times and fixed with acetic acid and methanol, dropped onto slides, air-dried, and denatured in 2×SSC and 70% formamide at 74° C. for 5 min. To detect the telomeres, the cells were incubated with a digoxigenin-labeled human telomeric probe (Oncor) at 37° C. for 16 to 18 hr. The slides were washed consecutively in 2×SSC at 42° C. and 72° C., each time for 5 min. After blocking with 5% skim milk for 10 min, cells were incubated sequentially with rhodamine-labeled (red color) anti-digoxigenin, rabbit anti-sheep, and rhodamine-labeled anti-rabbit antibodies, at room temperature for 30 min. Between each step, the slides were washed three times in 130 mM phosphate buffer, pH 7.4, 0.1% Triton X-100, each time for 5 min. The chromosomes were then counterstained with 0.1 μg/ml of […] (blue color) and examined under a fluorescence microscope at 100× magnification using a triple band pass filter at 340 nm.

[3] = mouse, in vivo
Description: (§1) The activity of paclitaxel, with or without AZT, was evaluated in immunodeficient mice (male Balb/c nu/nu mice, 6-8 weeks old) bearing the human pharynx FaDu xenografts. […] The saline control group received injections of 200 μl/day of physiological saline of five consecutive days. The paclitaxel group received injections of 10 mg/kg/day paclitaxel dissolved in Cremophor and ethanol (i.e., Taxol) in a volume of 200 μl for five consecutive days. The AZT group received a seven-day infusion of AZT at a rate of 200 ng/hr by a subcutaneously implanted Alzet minipump. […] Animal weights and tumor sizes were measured on days 1, 3, 6, 8, and 10 after initiation of the paclitaxel treatment.

[4] = system: PC3 cells; assay: Cell detachment from the growth surface; format: cell-based, human; details: 20 nM paclitaxel, end of 96-hr experiment
Description: (§2) Upon drug treatment, the supernatant along with two subsequent Versene rinses, which contained the detached cells, were collected. […] These samples were centrifuged at 1500 rpm for 10 min and the resulting cell pellets were resuspended in 2 ml of culture media. The cell number in the detached and attached fractions were counted using a Coulter counter (Coulter Electronic, Inc., Hialeah, Fla.).

[5] = system: FaDu cells; assay: Cell detachment from the growth surface; format: cell-based, human; details: 200 nM paclitaxel, end of 48-hr treatment
Description: as §2
Treatment with the above agents was initiated after cells were allowed to attach to the growth surface in culture flasks. On the day of experiments, the culture medium was removed and replaced with drug-containing medium. […] For d4T, two concentrations, 20 μM and 40 μM were used.
Agent effect was measured in three ways, i.e., enumeration of the number of cells that remained attached in culture flask, enumeration of the number of cells that detached from the growth surface, and by measuring changes in apoptosis. […] The drug-induced detachment of cells from the growth surface was determined by counting the attached and detached cells.

[6] = system: FaDu cells; assay: SRB paclitaxel cytotoxicity in hTR antisense transfected cells; format: cell-based; details: Homo sapiens, +antisense + IPTG cells (IPTG 44 days), paclitaxel 96 hours, read-out: IC50 of paclitaxel, clone #1
Description: In vitro drug activity evaluation. Drug effect was measured in three ways, i.e., by enumerating the number of cells that remained attached in culture flask, by enumerating the number of cells that detached from the growth surface, and changes in levels of apoptosis. The first measurement represents the overall drug effect, i.e., the combination of cytostatic and cytotoxic effects, whereas the latter two measurements reflect the cytotoxic effect. The remaining cell number after drug treatment was measured using the sulforhodamine B (SRB) assay which stains for cellular protein (Skehan P et al. (1990) J Natl Cancer Inst 82:1107-1112).
In brief, cells were seeded onto 96-well plates. To avoid changes in drug concentration caused by excessive evaporation of medium in wells located at the edge of the plate only the inner wells in 96-well plates were used. The outer wells contained only tissue culture media to serve as blanks. […] The amount of SRB was measured by absorbance at 490 nm using an EL 340 microplate biokinetics reader (Bio-Tek Instruments, Inc., Winooski, Vt.). The absorbance is proportional to the number of cells attached to the culture plate. […]
Effect of hTR antisense on the cytotoxic effect of paclitaxel. […] The cytotoxic effect of paclitaxel was quantified using the SRB method which measures the total cellular proteins. […]

[7] = system: human pharynx FaDu xenografts; assay: Antitumor effect in mice bearing FaDu xenografts
Description: as §1
The antitumor effect of the drug treatments was measured in three ways. The first was the reduction in tumor size. Tumor sizes were determined by first preparing a mold of the extruding tumor using Jeltrate, a rapidly setting molding material, and then preparing and weighing the countermold. Second, the apoptotic effect was measured. […] The tumor sections were evaluated morphologically for tumor cell density, and density of apoptotic cells. […] Third, the ability of drug treatment to prolong the survival time was measured. For this study, the animals were monitored for 100 days, or until moribundity, defined by a tumor length exceeding 1.0 cm, was reached.

CC(=O)O[C@H]1C(=O)[C@@]2(C)[C@H]([C@H](OC(=O)c3ccccc3)[C@]3(O)C[C@H](OC(=O)[C@H](O)[C@@H](NC(=O)c4ccccc4)c4ccccc4)C(C)=C1C3(C)C)[C@]1(OC(C)=O)CO[C@@H]1C[C@@H]2O [paclitaxel]
time of peak telomerase activity [1]: 12 h
telomerase activity ([1]; 96 hr): about 50 % of the baseline level
attached cells showing damaged telomeres ([2]; 1 and 12 hr): < 5%
detached cells showing damaged telomeres ([2]; 1 hr): 40%
detached cells showing damaged telomeres ([2]; 12 hr): 90%
treatment time after which shortening or deletion of telomeres was detectable ([2]; FaDu and SKOV3): 1 h
End-of-experiment body weight [3]: 97∀6 ^a % of pretreatment value
body weight loss compared to the pretreatment weight [3]: < 3%
detached cell fraction [4]: 68%
detached cell fraction [5]: about 40%
IC50 [6]: 1.3 nM
median time to reach moribundity ([7]; Kaplan Meier analysis, monitored 100 days): 42 days
tumor-free survivors ([7]; of 12 animals): did not show tumor-free survivors
